# Assay results from patent US4954348A, “Non-ionic polyol contrast media from ionic contrast media” (Cook Imaging Corporation, priority 1988, dated 1990).
# Read-outs that look alike come from different tables or passages of the source.
# Legend:
# [1] = Osmolality at 300 mg I/ml, 37° C.; assay type: physicochemical; settings: for Osmolality: 300 mg I/ml, 37° C.; for osmolality versus existing compounds: existing compounds serving as control
# Protocol: (§1) All compounds were tested for stability, solubility, osmolality, viscosity and systemic toxicity, using conventional tests.
# (§2) *All at 300 mg I/ml concentration and 37° C. Injection rates 1
# Rats (female Lewis) = experiment: i.v. LD50 in rats (systemic toxicity); assay type: in vivo; settings: 300 mg I/ml, 37° C., injection rate 5 ml/min
# Protocol: as §1, §2
# (§3) ml/min in mice and 5 ml/min in rats.
# (§4) ^° Ref. Salvesen, S. in Acta Radiol. Suppl. 362, p. 73, 1980.
# Mice (female CD-1) = experiment: i.v. LD50 in mice (systemic toxicity); assay type: in vivo; settings: 300 mg I/ml, 37° C., injection rate 1 ml/min
# Protocol: as §1, §2, §3, §4
# [2] = Viscosity at 300 mg I/ml, 37° C.; assay type: physicochemical
# Protocol: as §1, §2
# [3] = stability, solubility, osmolality, viscosity and systemic toxicity, conventional tests (overall statement); settings: existing compounds serving as control
# Protocol: as §1
# [4] = 300 mg I/ml, 37° C.; ^+ Ref. Handbook of Experimental Pharmacology, Vol. 73; cited from earlier work
# [5] = 300 mg I/ml, 37° C.; ^+ Ref. Handbook of Experimental Pharmacology, Vol. 73; cited from earlier work; remark: listed apart in the source
# [6] = must be dispensed in lyophilized form and reconstituted prior to use; cited from earlier work
smiles,measurement,setting,value
"CNC(=O)c1c(I)c(C(=O)N[C@H](CO)[C@@H](O)CO)c(I)c(N(CC(O)CO)C(C)=O)c1I (relative stereo) [XVI, 5-(N-2,3-Dihydroxypropylacetamido)-2,4,6-triido-N-methyl-N'-(1,3,4-trihydroxy-erythro-but-2-yl)-isophthalamide]",Osmolality,[1],513 mOsm/kg
same,osmolality versus existing compounds,[1],substantially reduced osmolality
same,i.v. LD50,Rats (female Lewis),13.5-14 gI/kg
same,i.v. LD50,Mice (female CD-1),12-13 gI/kg
same,Viscosity,[2],5.2 cps
same,"stability, solubility, viscosity and systemic toxicity (other categories) versus existing compounds",[3],comparable or superior properties in the other categories
CC(=O)N(CC(O)CO)c1c(I)c(C(=O)NCC(O)CO)c(I)c(C(=O)NCC(O)CO)c1I (stereo not shown) [Iohexol],Osmolality,[4],690 mOsm/kg
same,Viscosity,[5],6.1 cps
same,i.v. LD50,Rats (female Lewis),13.5-15 gI/kg
same,i.v. LD50,Mice (female CD-1),17.9 gI/kg
C[C@H](O)C(=O)Nc1c(I)c(C(=O)NC(CO)CO)c(I)c(C(=O)NC(CO)CO)c1I [Iopamidol],Osmolality,[4],619 mOsm/kg
same,Viscosity,[5],4.5 cps
same,i.v. LD50,Rats (female Lewis),12.2-13 gI/kg
same,i.v. LD50,Mice (female CD-1),17-18.5 gI/kg
COCC(=O)Nc1c(I)c(C(=O)NCC(O)CO)c(I)c(C(=O)N(C)CC(O)CO)c1I (stereo not shown) [Iopromide],Osmolality,[4],607 mOsm/kg
same,Viscosity,[5],4.8 cps
same,i.v. LD50,Rats (female Lewis),10-11.5 gI/kg
same,i.v. LD50,Mice (female CD-1),11.5-13.0 gI/kg
CC(=O)Nc1c(I)c(C(=O)N[C@H]2C(O)O[C@H](CO)[C@@H](O)[C@@H]2O)c(I)c(N(C)C(C)=O)c1I (stereo partly shown) [Metrizamide],hydrolytic stability,[6],hydrolytic instability
"CC(=O)N(CC(O)CO)c1c(I)c(C(=O)NCCO)c(I)c(C(=O)NCC(O)CO)c1I (stereo not shown) [VIII, 5-(N-2,3-Dihydroxypropylacetamido)-2,4,6-triiodo-N-(2,3-dihydroxypropyl)-N'-(2-hydroxyethyl)isophthalamide]",Osmolality,[1],524 mOsm/kg
same,osmolality versus existing compounds,[1],substantially reduced osmolality
same,i.v. LD50,Rats (female Lewis),14-16.5 gI/kg
same,i.v. LD50,Mice (female CD-1),18.8 gI/kg
same,Viscosity,[2],4.9 cps
same,"stability, solubility, viscosity and systemic toxicity (other categories) versus existing compounds",[3],comparable or superior properties in the other categories
